Experiments:
CPT1A_C96 = target: T1, CPT1A_C96 (Homo sapiens, UniProt P50416); test: IA-DTB cysteine engagement; format: binding; conditions: 22Rv1 cells, 20 μM probe, 1 h, relative to DMSO
T1 construct: endogenous in cells; host or cells: 22Rv1
T1 sequence (P50416 1-773): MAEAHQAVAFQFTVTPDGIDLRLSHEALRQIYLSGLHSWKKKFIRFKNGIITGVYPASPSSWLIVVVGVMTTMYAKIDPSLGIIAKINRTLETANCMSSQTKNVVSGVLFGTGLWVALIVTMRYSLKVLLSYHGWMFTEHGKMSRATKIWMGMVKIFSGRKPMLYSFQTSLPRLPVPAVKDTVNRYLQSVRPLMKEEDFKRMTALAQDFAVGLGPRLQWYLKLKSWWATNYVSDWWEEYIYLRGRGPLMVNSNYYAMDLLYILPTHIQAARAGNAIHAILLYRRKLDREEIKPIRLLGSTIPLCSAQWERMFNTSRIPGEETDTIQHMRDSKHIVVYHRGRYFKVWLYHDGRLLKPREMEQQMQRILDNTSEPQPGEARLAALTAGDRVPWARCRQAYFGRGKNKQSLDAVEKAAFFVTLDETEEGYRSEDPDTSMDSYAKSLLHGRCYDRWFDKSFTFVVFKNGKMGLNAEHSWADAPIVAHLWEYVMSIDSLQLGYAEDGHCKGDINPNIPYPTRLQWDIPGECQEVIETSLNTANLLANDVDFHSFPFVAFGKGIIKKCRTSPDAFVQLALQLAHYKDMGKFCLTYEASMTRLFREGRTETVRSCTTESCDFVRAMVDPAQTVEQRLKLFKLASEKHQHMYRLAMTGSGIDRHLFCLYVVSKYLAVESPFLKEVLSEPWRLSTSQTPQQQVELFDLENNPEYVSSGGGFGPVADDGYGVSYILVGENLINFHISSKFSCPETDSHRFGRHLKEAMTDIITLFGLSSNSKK
In short: (§1)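 Read-out is TMT-based cysteine engagement, expressed as each reporter ion intensity divided by the average of the DMSO channels. Before that, probe-treated cell lysates were capped with IA-DTB, digested, enriched on streptavidin and TMT-tagged. PSMs with DMSO summed intensity <10,000 or DMSO CV >0.5 were excluded.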

TBC1D13_C282 = target: T2, TBC1D13_C282 (Homo sapiens, UniProt Q9NVG8); test: IA-DTB cysteine engagement; format: binding; conditions: 22Rv1 cells, 20 μM probe, 1 h, relative to DMSO
T2 construct: endogenous in cells; host or cells: 22Rv1
T2 sequence (Q9NVG8 1-400): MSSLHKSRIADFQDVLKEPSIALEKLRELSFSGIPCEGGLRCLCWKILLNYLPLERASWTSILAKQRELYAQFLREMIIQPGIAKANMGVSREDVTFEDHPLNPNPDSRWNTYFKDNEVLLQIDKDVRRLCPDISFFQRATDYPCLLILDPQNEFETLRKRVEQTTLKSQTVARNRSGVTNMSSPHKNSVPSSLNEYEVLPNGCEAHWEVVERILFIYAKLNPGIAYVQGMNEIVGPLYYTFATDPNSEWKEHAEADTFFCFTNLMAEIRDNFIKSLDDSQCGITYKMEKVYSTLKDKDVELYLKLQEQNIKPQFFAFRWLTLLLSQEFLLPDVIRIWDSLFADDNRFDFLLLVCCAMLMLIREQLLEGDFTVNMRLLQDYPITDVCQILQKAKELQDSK
In short: as §1

| % engagement CPT1A_C96 (CPT1A_C96) [%] | % engagement TBC1D13_C282 (TBC1D13_C282) [%] | SMILES |
| --- | --- | --- |
| 87 | 75.75 | C=CC(=O)N1C[C@@H](c2ccc(Br)cc2)[C@H]1C(=O)Nc1cccc2cccnc12 [MY-1A, (2S,3R)-1-acryloyl-3-(4-bromophenyl)-N-(quinolin-8-yl)azetidine-2-carboxamide] |
| 84.75 | 1 | C=CC(=O)N1C[C@H](c2ccc(Br)cc2)[C@@H]1C(=O)Nc1cccc2cccnc12 [MY-1B, (2R,3S)-1-acryloyl-3-(4-bromophenyl)-N-(quinolin-8-yl)azetidine-2-carboxamide] |
| 89.25 | −16 | C=CC(=O)N1C[C@H](c2ccc(Br)cc2)[C@H]1C(=O)Nc1cccc2cccnc12 [MY-3A, (2S,3S)-1-acryloyl-3-(4-bromophenyl)-N-(quinolin-8-yl)azetidine-2-carboxamide] |
| 93.5 | 51.5 | C=CC(=O)N1C[C@H](c2ccc(Br)cc2)[C@H]1C(=O)Nc1cccc2cccnc12 [MY-3B, (2S,3S)-1-acryloyl-3-(4-bromophenyl)-N-(quinolin-8-yl)azetidine-2-carboxamide] |

— patent US20250034216A1, “STEREOSELECTIVE COVALENT LIGANDS FOR ONCOGENIC AND IMMUNOLOGICAL PROTEINS” (The Scripps Research Institute, priority 2021, published 2025)
